These results are taken from publication PMC5464344, “Analgesic and anti‐inflammatory properties of novel, selective, and potent EP4 receptor antagonists” (Pharmacology Research & Perspectives, 2017).

One test deals with T1, COXl (h) (Homo sapiens, UniProt P23219).
T1 construct: CEREP (contract laboratory that ran the assay)
The test is described as follows: Off-target activity (CEREP), COX1. Conditions: 10 μmol/L; obtained at CEREP (Blanco et al. 2016c); Compound 1 value footnoted: non-specific assay interference. The test is classed as biochemical. An excerpt: The off‐target activity related to prostaglandin pathway (Table 2) were obtained at CEREP (Blanco et al. 2016c).

For test [1], the system named is male Lewis rats, adjuvant induced arthritis. The test is described as follows: AIA model of inflammation (paw swelling). Format: in vivo. Conditions: rat AIA; all 3 doses tested (1, 3, and 10 mg/kg) oral once daily 4 days; P < 0.05 by Dunnett's test. On the procedure:
(§1) For the monoiodoacetate (MIA) and adjuvant induced arthritis (AIA) studies, male Lewis rats (Envigo, Indianapolis, IN) of approximately 8 weeks of age at the time of disease induction were used. For collagen induced arthritis studies (CIA) female Lewis rats (Charles River) weighing 150–170 g were used. Rats were housed in groups of 2 or 3 per cage and maintained in a constant temperature, and on a 12 h light/12 h dark cycle. Animals had free access to food and water at all times except during data collection.
On Day 0, paw widths of both right and left paws were measured between the lateral and dorsal surfaces using calipers, and a mean paw thickness for each rat was calculated by averaging these measurements. Rats were then inoculated intradermally with 0.25 mg of adjuvant (M. Tuberculosis H37 RA from Difco) in 100 μL of mineral oil at the base of the tail to induce adjuvant disease. Eleven days post inoculation paw widths of both right and left paws were measured again, and the percent change from the Day 0 reading was calculated. […] On the fifth day after dosing started (day 15 post adjuvant injection) the rats were euthanized without further dosing and paw width measured again. The percent increase in mean paw thickness from day 11 to day 15 was then calculated as a measure of paw swelling which is indicative of the amount of inflammation in the paws measured. […]

Test [2] deals with male Lewis rats, MIA injected knee. The arrangement: method as in Blanco et al. 2016b. Particulars: results published previously, ref Blanco et al. 2016b; cited from earlier work.
The subject of test [3] is male Lewis rats, adjuvant induced arthritis. The arrangement: method as in Blanco et al. 2016b. Conditions: results published previously, ref Blanco et al. 2016b; cited from earlier work.
In test [4] the test system is female Lewis rats, collagen induced arthritis. The test is described as follows: Type-II CIA model of inflammation and autoimmunity. The test is classed as in vivo. Particulars: rat CIA. As to the method: as §1
On day 1 of the study ankle widths are measured across the joint (left side to right side) at the thickest point with calipers and rats immunized intradermally near the base of the tail with 0.4 mL of 1 mg/mL type II collagen (Elastin Products) emulsified with incomplete Freund's adjuvant (Sigma Aldrich). A second booster injection booster of 0.4 mL of the collagen emulsion was given on day 8 of the study. Ankle widths were measured on day 8 before the collagen injection and every 2–3 days thereafter until study end. On day 11 rats were randomized into five groups of eight animals based on inflammation (redness and/or swelling) in their hind paws and body weight. Rats were then dosed with vehicle (10% Acacia plus 0.05% antifoam) and compound 3 at doses of 3, 10, and 30 mg/kg. Prednisolone was included at a dose of 10 mg/kg as a positive control. Dosing was by oral gavage once daily for seventeen days at a dose volume of 5 mL/kg. On day 28 rats were euthanized and hind paws and knee joints collected for histology. Ankles and knees were fixed in neutral buffered formalin, decalcified, embedded in paraffin, and sectioned according to standard histological methodology and the joints were then scored by a pathologist using published scoring criteria (Bendele 2001; Levine et al. 2014).

T1 sequence (P23219 24-599): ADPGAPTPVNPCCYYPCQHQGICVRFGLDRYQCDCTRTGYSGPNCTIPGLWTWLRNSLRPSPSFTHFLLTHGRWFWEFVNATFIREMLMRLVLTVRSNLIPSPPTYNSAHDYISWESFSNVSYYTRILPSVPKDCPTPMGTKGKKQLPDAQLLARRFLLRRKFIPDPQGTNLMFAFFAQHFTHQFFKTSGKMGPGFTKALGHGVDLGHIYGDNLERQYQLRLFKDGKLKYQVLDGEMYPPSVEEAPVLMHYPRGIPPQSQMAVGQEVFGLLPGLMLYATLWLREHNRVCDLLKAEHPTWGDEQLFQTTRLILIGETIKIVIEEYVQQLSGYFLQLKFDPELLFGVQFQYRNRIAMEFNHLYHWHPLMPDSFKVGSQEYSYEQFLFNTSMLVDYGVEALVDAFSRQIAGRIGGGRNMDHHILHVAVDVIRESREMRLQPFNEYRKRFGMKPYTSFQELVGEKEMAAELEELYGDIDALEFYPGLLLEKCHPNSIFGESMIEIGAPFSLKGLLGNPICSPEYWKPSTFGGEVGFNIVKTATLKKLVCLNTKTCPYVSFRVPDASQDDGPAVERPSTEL

Regarding `C[C@H](NC(=O)[C@H]1CCCCN1CCOc1ccccc1)c1ccc(C(=O)O)cc1` [Compound 2], the inhibition (commonly the relative decrease from the control value, in per cent) at 10 µM on COXl (h) is -24%. In addition, the “increases in paw inflammation (swelling) compared to vehicle” value in test [1] was “significantly inhibited”.

Consider `Cc1ccc(N2CCC(O)CC2)nc1C(=O)Nc1c(C)cc(C(=O)O)cc1C` [Compound 1], for which, in test [2], the “efficacy in rat MIA model of pain” value is given as “effective”. Also, in test [3], the “efficacy in rat AIA model of inflammation” value is “effective”.

As for `Cc1ccc(-c2cccc(CO)c2)nc1C(=O)Nc1c(C)ccc(C(=O)O)c1C` [Compound 3], the “ankle histology, nearly all parameters and summed scores” value in test [4] (10 and 30 mg/kg oral once daily for seventeen days) was “significant reductions”. The “knee joint histopathology (representative photomicrograph)” value in test [4] (Fig. 10 bottom panel, prednisolone 10 mg/kg, compound 3 dose not given) is “minimal inflammation (S) and cartilage damage (large arrow), very minimal pannus (small arrow) and bone formation (P) not visible at this magnification”. Further, the “ankle joint histopathology (representative photomicrograph)” value in test [4] (Fig. 10 top panel, prednisolone 10 mg/kg, compound 3 dose not given) was “moderate inflammation (S) and cartilage damage (large arrow), mild pannus (small arrow) and mild periosteal bone formation”. Further, the ankle thickness result in test [4] (all three doses (3, 10, and 30 mg/kg) oral once daily, data not shown) is listed as “significant reduction”.
